Values after ≈ are worked out from the molar mass of the structure shown.
Experiments:
spleen cells = experiment: In vivo treatment of mice: effect on in vitro Con A stimulation of spleen cell proliferation; set-up: species or system male Balb/C mice
Protocol: The purpose of this study was to determine the effects of in vivo treatment of mice with the compounds NPT 15392 and 15410 on the subsequent activity of spleen cells isolated from these animals and evaluated in vitro for their proliferative response to the mitogen, Concanavalin A (Con A).
Nine male Balb/C mice, 8-9 weeks old, weighing 18-20 gms were divided into three groups. One group was treated twice daily (for 1 day), in the morning and afternoon, with an oral dose of NPT 15392 at 10 mg/kg. The second group was similarly treated with NPT 15410 at 20 mg/kg. A third group, dosed with saline served as a placebo control.
The following day, each group was sacrificed and the spleens removed and pooled. The spleens were minced and the cells washed in RPMI-1640 medium (Grand Island Biologicals) supplemental with 2 mm glutamine and antibiotics. The cell concentration of each preparation was determined by a Coulter counter and adjusted to 5×10^6 cells/ml with RPMI medium.
Microtiter assays were carried out in 0.2 ml incubations, containing 5×10^5 cells and Con A or Con A and compounds at the indicated concentrations. All assays were performed with 6 replicates and compared with a blank assay containing only cells. The assay plates were incubated at 37° in 5% CO2 for 4 days. During the final 18-20 hours of incubation, 0.5 ml of ^3 HTdR (10 μCi/ml, 6 Ci /m mole) were added to each culture. The cultures were harvested with a multiple automatic sample harvester (MASH) unit and the incorporated ^3 HTdR determined with a Beckman LS 8000 liquid scintillation counter, as a measure of cell proliferation. The results are tabulated as the ratio of the activity in the Con A or Con A and compound treated cultures to the blank cultures.

L-1210 leukemic cells = experiment: Anti-leukemic activity, inhibition of L-1210 growth; assay type: cell-based, mouse
Protocol: Anti-Leukemic Activity (Inhibition of L-1210 Growth)
Leukemic cells isolated from mice bearing the L-1210 tumor are cultured in vitro and their growth can be measured by counting the number of cells in the culture over a period of time. The incorporation of a test substance into the media will prevent the growth of the leukemic cells, an indication of an effective anti-leukemic agent.
I50 (concentration of drug inhibiting growth of L-1210) by % for the tested compounds was as follows:
To Measure Inhibition of Leukemic Cell (L-1210) Growth
Check to see that there is adequate cell growth in the stock cultures. Use cells 48-72 hours after transfers are done.
Weigh out the drugs at 50 times the desired final concentration and made serial dilutions.
Make up the final medium using 500 mls McCoy's 5A medium, 15% fetal calf serum, 5 mls penicillin-streptomycin solution, and 5 mls antibiotic-antimycotic solution and let it stand at room temperature.
Using sterile technique, add 0.1 ml of the drug dilutions to each tube.
Add an appropriate quantity of cells to the prepared medium. After mixing, remove a 0.5 ml sample, place it in a vial containing […] of saline, and count it on the Coulter Counter. Multiply the count by 40 to compensate for the 40 fold dilution (0.5 ml into […] and record the inoculum.
Add 5 mls of cell suspension to each tube. Swirl the bottle every 4 tubes to insure a more uniform distribution of cells.
Tighten the caps and place in the CO2 incubator at 36°-38° for 96 hours.
After 96 hours remove the tubes from the incubator and count the contents of each on the Coulter Counter. Multiply all counts by 40 and average the four counts for each drug dilution. If the count is less than the inoculum, record 100% inhibition. If the count is greater than the average of the eight control counts, record 0% inhibition. For all other counts use the following formula: [formula] 100%-% servival=inhibition of growth due to treatment.

Herpes virus = experiment: Anti-herpes activity, plaque assay (Table 3); assay type: cell-based, herpes hominis type 2 (Vero cells); conditions: for Plaques (PFU) Percent Inhibition: Test 15-150 μg/ml; for reduce plaque formation caused by Herpes Simplex virus: concentrations less than 100 μg/ml
Source text: Anti-Herpes Activity--(Plaque Assay)
The infection of tissue culture cells by Herpes virus causes cell lysis. After a period of time these lysed cells are visualized as a tiny clear area (plaque) on a layer of cells. The incorporation of a test substance into the media will reduce the number of plaques if it is capable of preventing virus replication. The method is as follows:
There was employed herpes hominis type 2 purchased from American Type Culture Collection (ATCC), Bethesda, Maryland, ATCC #VR 540, Lot 3D. The lyophilized viral suspension was reconstituted with 1 ml sterile distilled H2 O. The virus was passed twice through HeLa-cell monolayers. The tissue-culture supernates were pooled, dispensed in 1-ml aliquots, and stored at -70° C.
Vero cells in log-growth phase were subcultured at a concentration of 1×10^5 cells/ml in 50-ml Falcon flasks in Eagle's Minimum Essential Medium (MEM), supplemented with 10% fetal calf serum (FCS) and antibiotics. Media were changed the day following planting. The Vero monolayers reached confluence by the second day after planting and with the cells in log phase, the cultures were used for the plaque assay.
Culture media were poured off and the monolayers were wahsed once with phosphate-buffered saline (PBS). Several different dilutions of the working-stock virus suspension were prepared and each culture flask was infected with 0.5 ml of one of the virus dilutions added to FCS-free medium. […] Controls were prepared with medium devoid of drug.
Virus adsorption was allowed to proceed for 2 hours at 37° C., during which time the cultures were rocked gently every 15 minutes. Then Media were poured off and the monolayers were washed once with 10 ml PBS.
Agarose was prepared at a concentration of 6% w/v in 50 ml PBS. A stock medium of MEM supplemented with 2% FCS was prepared. Drug was added to some of the stock medium at 150 μg/ml. The three solutions were maintained at 47° C. In addition, a 1:10 dilution of pooled human anti-herpes sera was readied. Just before the start of treatment, 15 ml of the agarose solution were added to 85 ml of medium. Another 15 ml of agarose were added to 85 ml of drug-medium.
Each of the washed monolayers in one group of experiments was treated either with 5 ml of agarose-medium or with 5 ml of agarose-drug-medium. In another group of experiments, each monolayer was treated either with 0.2 ml of anti-herpes sera in 5 ml of stock medium, or with 0.2 ml of anti-herpes sera in 5 ml of drug-medium. The anti-herpes sera were used in place of agarose to localize plaques by neutralizing any free virus in the medium. The flasks were allowed to remain at room temperature for 5 minutes, after which they were incubated at 37° C. for 2 days. Triplicate cultures were used for most treatment groups.
Ten ml of PBS then were added to each flask. Overlays were shaken gently and then were poured out of the flasks. The monolayers were stained with a solution 0.5% w/v crystal violet in 50% methanol in triple-distilled H2 O.
Plaques were counted either directly by transmitted fluorescent light and macroviewing, or by the use of light microscopy for microplaques. Microplaques were counted by averaging three fields per experimental group under 150×magnification.

[1] = Con A 5 μg/ml (suboptimal), oral 15392 10 mg/kg, 15410 20 mg/kg

| Compound | response of spleen cells to Con A after in vivo treatment (in words) (spleen cells; [1]) | response of spleen cells to Con A after in vivo treatment (in words) (spleen cells; Con A 10 μg/ml (more optimal)) | IC50 (L-1210 leukemic cells; Mus musculus, L1210, tissue culture, read-out: 50% inhibition of L-1210 cells) [µg/mL] | inhibition of replication of Herpes Simplex virus (in words) (Herpes virus) | Plaques (PFU) Percent Inhibition (Herpes virus) [%] | reduce plaque formation caused by Herpes Simplex virus (Herpes virus) [%] | I50 (concentration of drug inhibiting growth of L-1210) (L-1210 leukemic cells; 96 hours) [micrograms/ml] | Potentiation Anti-Leukemia by DIP.PAcBA salt (L-1210 leukemic cells; salt compared with parent compound) | 50% inhibition of L-1210 cells (L-1210 leukemic cells; tissue culture) [µg/mL] |
| --- | --- | --- | --- | --- | --- | --- | --- | --- | --- |
| CCCCCC[C@H]([C@H](C)O)n1cnc2c(=O)[nH]cnc21 (relative stereo) [NPT 15392, ERYTHRO-9-(2-HYDROXY-3-NONYL)HYPOXANTHINE] | increases the subsequent response of the spleen cells | No significant differences | 28 (≈ 101 µM) | shown to inhibit the replication of Herpes Simplex virus | 98 | > 90 | – | – | – |
| CCCCCC[C@H]([C@H](C)O)n1cnc2c(=O)[nH]cnc21 (relative stereo) [NPT 15410] | increases the subsequent response of the spleen cells | No significant differences | – | shown to inhibit the replication of Herpes Simplex virus | 98 | > 90 | 54 | Yes | 54 |

— US4221794A, “Method of imparting immunomodulating and antiviral activity” (Newport Pharmaceuticals International, Inc., priority 1979, dated 1980)
